According to the NIST ThermoML archive (doi:10.1016/j.tca.2014.10.015):
Values joined by “and” are separate entries in the source; they are usually repeats but may differ in a detail not shown here. Identical values can stand only once. Numbers after ± are expanded uncertainties.

Settings: Liquid; for vapor or sublimation pressure: Transpiration method; for mass density: 293 K, 101.33 kPa, Pycnometric method

CCCCCCCCN=[N+]=[N-] [1-azidooctane]
Settings | mass density [kg/m3] | vapor or sublimation pressure
– | 840 ± 20 | –
276.2 K | – | 0.00625 ± 0.00035 kPa
279.8 K | – | 0.00904 ± 0.00048 kPa
282.5 K | – | 0.01172 ± 0.00062 kPa
285.8 K | – | 0.01548 ± 0.00082 kPa
289.4 K | – | 0.02119 ± 0.0011 kPa
292.2 K | – | 0.02751 ± 0.0014 kPa
293.2 K | – | 0.02911 ± 0.0015 kPa
296.2 K | – | 0.03707 ± 0.0019 kPa
300.2 K | – | 0.04808 ± 0.0025 kPa
302.1 K | – | 0.05805 ± 0.0031 kPa
303.1 K | – | 0.06504 ± 0.0034 kPa
307 K | – | 0.08345 ± 0.0044 kPa
310 K | – | 0.1089 ± 0.0056 kPa
313.9 K | – | 0.1355 ± 0.0071 kPa
317.9 K | – | 0.188 ± 0.0099 kPa
320.9 K | – | 0.2406 ± 0.012 kPa
321.8 K | – | 0.2385 ± 0.012 kPa
323.9 K | – | 0.2592 ± 0.014 kPa and 0.2683 ± 0.014 kPa
325.8 K | – | 0.3237 ± 0.018 kPa and 0.3236 ± 0.018 kPa and 0.3135 ± 0.017 kPa

CCCCCCCCCCN=[N+]=[N-] [1-decyl azide]
Settings | mass density [kg/m3] | vapor or sublimation pressure [kPa]
– | 870 ± 20 | –
299.1 K | – | 0.00431 ± 0.00024
304 K | – | 0.00666 ± 0.00035
309 K | – | 0.01017 ± 0.00053
314 K | – | 0.01489 ± 0.00078
318.9 K | – | 0.02152 ± 0.0011
324 K | – | 0.03305 ± 0.0017
329 K | – | 0.04744 ± 0.0025
333.9 K | – | 0.06769 ± 0.0035
339 K | – | 0.0914 ± 0.0048
344.1 K | – | 0.1347 ± 0.0069
